Results published in PubChem BioAssay AID2060902 (Molecular Pharmacology Branch, DTP, NCI, 2025).

Tested on: 485368-065-R3-J5-PDC spheroids with HUVEC/MSC, viability
Experiment: Anticancer human tumor 485368-065-R3-J5-PDC patient-derived pancreatic carcinoma cell line growth inhibition [RAS]
Conditions: for IC50: curve of first compound; for viability, T/C: stronger effect = lower value
Outline: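 Multi-cell-type spheroids: tumor cells plus HUVEC endothelial cells and mesenchymal stem cells. RAS-pathway inhibitors were combined with targeted agents, each dosed in half-log steps down from clinical Cmax, or from 10 microM when Cmax was unknown.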

[1] = second compound 0.00316 µM, first compound 0.0316 µM
[2] = second compound 0.00316 µM, first compound 0.1 µM
[3] = second compound 0.00316 µM, first compound 0.316 µM
[4] = second compound 0.00316 µM, first compound 1 µM
[5] = second compound 0.00316 µM, first compound 3.16 µM
[6] = second compound 0.00316 µM, first compound 10 µM
[7] = second compound 0.01 µM, first compound 0.0316 µM
[8] = second compound 0.01 µM, first compound 0.1 µM
[9] = second compound 0.01 µM, first compound 0.316 µM
[10] = second compound 0.01 µM, first compound 1 µM
[11] = second compound 0.01 µM, first compound 3.16 µM
[12] = second compound 0.01 µM, first compound 10 µM
[13] = second compound 0.0316 µM, first compound 0.0316 µM
[14] = second compound 0.0316 µM, first compound 0.1 µM
[15] = second compound 0.0316 µM, first compound 0.316 µM
[16] = second compound 0.0316 µM, first compound 1 µM
[17] = second compound 0.0316 µM, first compound 3.16 µM
[18] = second compound 0.0316 µM, first compound 10 µM
[19] = second compound 0.1 µM, first compound 0.0316 µM
[20] = second compound 0.1 µM, first compound 0.1 µM
[21] = second compound 0.1 µM, first compound 0.316 µM
[22] = second compound 0.1 µM, first compound 1 µM
[23] = second compound 0.1 µM, first compound 3.16 µM
[24] = second compound 0.1 µM, first compound 10 µM
[25] = second compound 0.316 µM, first compound 0.0316 µM
[26] = second compound 0.316 µM, first compound 0.1 µM
[27] = second compound 0.316 µM, first compound 0.316 µM
[28] = second compound 0.316 µM, first compound 1 µM
[29] = second compound 0.316 µM, first compound 3.16 µM
[30] = second compound 0.316 µM, first compound 10 µM
[31] = second compound 1 µM, first compound 0.0316 µM
[32] = second compound 1 µM, first compound 0.1 µM
[33] = second compound 1 µM, first compound 0.316 µM
[34] = second compound 1 µM, first compound 1 µM
[35] = second compound 1 µM, first compound 3.16 µM
[36] = second compound 1 µM, first compound 10 µM
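Note: spheroids exposed to agents for seven days before readout.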

CC1(O)CCCC1n1c(=O)c(C(F)F)cc2cnc(NC3CCN(S(C)(=O)=O)CC3)nc21 (stereo not given) + C=CC(=O)N1CCN(c2nc(OCC3CCCN3C)nc3c(F)c(-c4nc(N)cc(C)c4C(F)(F)F)c(Cl)cc23)C(C)C1
IC50 (second compound 0.00316 µM): 402 nM
IC50 (second compound 0.01 µM): 314 nM
IC50 (second compound 0.0316 µM): 298 nM
IC50 (second compound 0.1 µM): 258 nM
IC50 (second compound 0.316 µM): 429 nM
IC50 (second compound 1 µM): 750 nM
viability, T/C [1]: 109%
viability, T/C [2]: 68.7%
viability, T/C [3]: 46.7%
viability, T/C [4]: 48.2%
viability, T/C [5]: 40.6%
viability, T/C [6]: 11.1%
viability, T/C [7]: 107%
viability, T/C [8]: 69.5%
viability, T/C [9]: 45.3%
viability, T/C [10]: 38.8%
viability, T/C [11]: 42.1%
viability, T/C [12]: 12.6%
viability, T/C [13]: 99.3%
viability, T/C [14]: 62.2%
viability, T/C [15]: 44.4%
viability, T/C [16]: 42.2%
viability, T/C [17]: 45.9%
viability, T/C [18]: 11.3%
viability, T/C [19]: 93.9%
viability, T/C [20]: 62.8%
viability, T/C [21]: 38.3%
viability, T/C [22]: 41.9%
viability, T/C [23]: 47.6%
viability, T/C [24]: 10.6%
viability, T/C [25]: 99.7%
viability, T/C [26]: 64.8%
viability, T/C [27]: 51.8%
viability, T/C [28]: 42%
viability, T/C [29]: 43.4%
viability, T/C [30]: 12.5%
viability, T/C [31]: 109%
viability, T/C [32]: 60%
viability, T/C [33]: 41.3%
viability, T/C [34]: 55.7%
viability, T/C [35]: 44.9%
viability, T/C [36]: 11.1%

CCC(CC)c1cc(NC2CCC(N)C2)n2nccc2n1 (stereo not given) + C=CC(=O)N1CCN(c2nc(OCC3CCCN3C)nc3c(F)c(-c4nc(N)cc(C)c4C(F)(F)F)c(Cl)cc23)C(C)C1
IC50 (second compound 0.00316 µM): 1950 nM
IC50 (second compound 0.01 µM): 1990 nM
IC50 (second compound 0.0316 µM): 1950 nM
IC50 (second compound 0.1 µM): 1970 nM
IC50 (second compound 0.316 µM): 1940 nM
IC50 (second compound 1 µM): 1980 nM
viability, T/C [1]: 107%
viability, T/C [2]: 93%
viability, T/C [3]: 114%
viability, T/C [4]: 133%
viability, T/C [5]: 3.52%
viability, T/C [6]: 6.56%
viability, T/C [7]: 118%
viability, T/C [8]: 108%
viability, T/C [9]: 109%
viability, T/C [10]: 136%
viability, T/C [11]: 3.73%
viability, T/C [12]: 5.65%
viability, T/C [13]: 101%
viability, T/C [14]: 109%
viability, T/C [15]: 112%
viability, T/C [16]: 134%
viability, T/C [17]: 3.48%
viability, T/C [18]: 4.43%
viability, T/C [19]: 93.7%
viability, T/C [20]: 104%
viability, T/C [21]: 117%
viability, T/C [22]: 143%
viability, T/C [23]: 3.81%
viability, T/C [24]: 6.8%
viability, T/C [25]: 94.8%
viability, T/C [26]: 108%
viability, T/C [27]: 106%
viability, T/C [28]: 132%
viability, T/C [29]: 3.87%
viability, T/C [30]: 7.93%
viability, T/C [31]: 97.5%
viability, T/C [32]: 92.3%
viability, T/C [33]: 120%
viability, T/C [34]: 133%
viability, T/C [35]: 5.49%
viability, T/C [36]: 10.8%

CCN1CCN(Cc2ccc(Nc3ncc(F)c(-c4cc(F)c5nc(C)n(C(C)C)c5c4)n3)nc2)CC1 + C=CC(=O)N1CCN(c2nc(OCC3CCCN3C)nc3c(F)c(-c4nc(N)cc(C)c4C(F)(F)F)c(Cl)cc23)C(C)C1
IC50 (second compound 0.00316 µM): 316 nM
IC50 (second compound 0.01 µM): 300 nM
IC50 (second compound 0.0316 µM): 454 nM
IC50 (second compound 0.1 µM): 644 nM
IC50 (second compound 0.316 µM): 604 nM
IC50 (second compound 1 µM): 627 nM
viability, T/C (second compound 0.00316 µM, first compound 0.00316 µM): 107%
viability, T/C (second compound 0.00316 µM, first compound 0.01 µM): 95.8%
viability, T/C [1]: 82.5%
viability, T/C [2]: 61.7%
viability, T/C [3]: 48.1%
viability, T/C [4]: 47%
viability, T/C (second compound 0.01 µM, first compound 0.00316 µM): 107%
viability, T/C (second compound 0.01 µM, first compound 0.01 µM): 96.7%
viability, T/C [7]: 81.3%
viability, T/C [8]: 64.3%
viability, T/C [9]: 49.6%
viability, T/C [10]: 38%
viability, T/C (second compound 0.0316 µM, first compound 0.00316 µM): 106%
viability, T/C (second compound 0.0316 µM, first compound 0.01 µM): 98.8%
viability, T/C [13]: 82.1%
viability, T/C [14]: 73.4%
viability, T/C [15]: 52.9%
viability, T/C [16]: 40.5%
viability, T/C (second compound 0.1 µM, first compound 0.00316 µM): 94.8%
viability, T/C (second compound 0.1 µM, first compound 0.01 µM): 88.1%
viability, T/C [19]: 90.1%
viability, T/C [20]: 76.8%
viability, T/C [21]: 60.2%
viability, T/C [22]: 43.8%
viability, T/C (second compound 0.316 µM, first compound 0.00316 µM): 97.5%
viability, T/C (second compound 0.316 µM, first compound 0.01 µM): 96.2%
viability, T/C [25]: 81%
viability, T/C [26]: 65.5%
viability, T/C [27]: 62.4%
viability, T/C [28]: 42.7%
viability, T/C (second compound 1 µM, first compound 0.00316 µM): 106%
viability, T/C (second compound 1 µM, first compound 0.01 µM): 88.3%
viability, T/C [31]: 80.3%
viability, T/C [32]: 68%
viability, T/C [33]: 57.3%
viability, T/C [34]: 44.8%

Cc1nc(N2CCC3(CC2)COC(C)C3N)c(CO)nc1Sc1ccnc(N)c1Cl (stereo not given) + C=CC(=O)N1CCN(c2nc(OCC3CCCN3C)nc3c(F)c(-c4nc(N)cc(C)c4C(F)(F)F)c(Cl)cc23)C(C)C1
IC50 (second compound 0.00316 µM): 7820 nM
IC50 (second compound 0.01 µM): 7830 nM
IC50 (second compound 0.0316 µM): > 10000 nM
IC50 (second compound 0.1 µM): > 10000 nM
IC50 (second compound 0.316 µM): > 10000 nM
IC50 (second compound 1 µM): > 10000 nM
viability, T/C [1]: 101%
viability, T/C [2]: 84.3%
viability, T/C [3]: 83.6%
viability, T/C [4]: 68.2%
viability, T/C [5]: 57.7%
viability, T/C [6]: 47.6%
viability, T/C [7]: 91.7%
viability, T/C [8]: 89.4%
viability, T/C [9]: 85.1%
viability, T/C [10]: 72.8%
viability, T/C [11]: 64.6%
viability, T/C [12]: 45.9%
viability, T/C [13]: 97.4%
viability, T/C [14]: 93.1%
viability, T/C [15]: 66.8%
viability, T/C [16]: 61.5%
viability, T/C [17]: 63.1%
viability, T/C [18]: 61.7%
viability, T/C [19]: 86.4%
viability, T/C [20]: 81.7%
viability, T/C [21]: 75.6%
viability, T/C [22]: 75.6%
viability, T/C [23]: 70.7%
viability, T/C [24]: 53.1%
viability, T/C [25]: 98.5%
viability, T/C [26]: 89.7%
viability, T/C [27]: 79.9%
viability, T/C [28]: 77%
viability, T/C [29]: 65.5%
viability, T/C [30]: 51.2%
viability, T/C [31]: 97.3%
viability, T/C [32]: 95.8%
viability, T/C [33]: 80.3%
viability, T/C [34]: 73.1%
viability, T/C [35]: 58.7%
viability, T/C [36]: 50.1%

NC1c2ccccc2OC12CCN(c1cnc3c(N4CCCc5ncccc54)n[nH]c3n1)CC2 (stereo not given) + C=CC(=O)N1CCN(c2nc(OCC3CCCN3C)nc3c(F)c(-c4nc(N)cc(C)c4C(F)(F)F)c(Cl)cc23)C(C)C1
IC50 (second compound 0.00316 µM): > 10000 nM
IC50 (second compound 0.01 µM): > 10000 nM
IC50 (second compound 0.0316 µM): > 10000 nM
IC50 (second compound 0.1 µM): > 10000 nM
IC50 (second compound 0.316 µM): > 10000 nM
IC50 (second compound 1 µM): > 10000 nM
viability, T/C [1]: 83.2%
viability, T/C [2]: 60.2%
viability, T/C [3]: 78.5%
viability, T/C [4]: 72.2%
viability, T/C [5]: 67%
viability, T/C [6]: 69.8%
viability, T/C [7]: 87.7%
viability, T/C [8]: 76.8%
viability, T/C [9]: 67.5%
viability, T/C [10]: 64.4%
viability, T/C [11]: 77%
viability, T/C [12]: 65.7%
viability, T/C [13]: 81.2%
viability, T/C [14]: 88.2%
viability, T/C [15]: 64.1%
viability, T/C [16]: 67.4%
viability, T/C [17]: 72.5%
viability, T/C [18]: 69.8%
viability, T/C [19]: 82.4%
viability, T/C [20]: 75.8%
viability, T/C [21]: 61.1%
viability, T/C [22]: 74.9%
viability, T/C [23]: 78%
viability, T/C [24]: 74.6%
viability, T/C [25]: 72.1%
viability, T/C [26]: 79.2%
viability, T/C [27]: 75.1%
viability, T/C [28]: 64.1%
viability, T/C [29]: 73.1%
viability, T/C [30]: 60.4%
viability, T/C [31]: 84.7%
viability, T/C [32]: 77.5%
viability, T/C [33]: 72.9%
viability, T/C [34]: 60.6%
viability, T/C [35]: 60.7%
viability, T/C [36]: 54.9%
